Laboratory results: patent publication US11547663B2, “Unit aerosol doses for anticoagulation” (InCarda Therapeutics, Inc., priority 2015, dated 2023)

Legend:
[1] = Inhaled anticoagulant in patient undergoing heart valve replacement (Example 6); assay type: in vivo, human
Procedure: Inhaled anticoagulant (e.g. Argatroban) will be administered to a patient undergoing heart valve replacement to target the heart to reach an anti-coagulated state. In this example, a dose of 0.1 to 150 mg/kg can be sufficient to achieve an anti-coagulated state in 30 minutes.

[2] = Inhaled anticoagulant in heart transplant patient (Example 8); assay type: in vivo, human; details: patient undergoing heart transplant
Procedure: Inhaled anticoagulant (e.g. Argatroban) will be administered to a patient undergoing heart transplant to target the heart to reach an anti-coagulated state. In this example, a dose of 0.1 to 150 mg/kg can be sufficient to achieve an anti-coagulated state in 30 minutes.

[3] = test system: intrinsic pathway; assay: Activated clotting time (ACT) in dog blood after IV or IT anticoagulant; assay type: in vivo; details: for ACT LA: Left Atrium
Procedure: To assess the efficacy of anticoagulants delivered via intratracheal (IT) inhalation, four different anticoagulants were tested in a dog study. PK as well as biomarkers of blood in the Left Atrium (LA) and Coronary Sinus (CS) were monitored. These locations were chosen as these are the sites whereby clot formation occurs that leads to Myocardial Infarction or results in stroke. These drugs and doses were selected to represent a wide spectrum of anticoagulant classes. One anticoagulant was tested in one dog on each arm of this study. Activated clotting time (ACT), measures the time in seconds needed for whole blood to clot upon exposure to an activator of an intrinsic pathway by the addition of such as factor XII activators. Measurements were performed in the blood collected from Left Atrium (LA) and in the Coronary sinus (CS)—the targets for stroke prevention and Myocardial Infarction (MI), respectively.

[4] = test system: extrinsic system; assay: Prothrombin Time (PT) in dog blood after IV or IT anticoagulant; assay type: in vivo; details: for PT CS / PTCS: Coronary Sinus; for PT LA: Left Atrium
Procedure: (§1) To assess the efficacy of anticoagulants delivered via intratracheal (IT) inhalation, four different anticoagulants were tested in a dog study.
(§2) PK as well as biomarkers of blood in the Left Atrium (LA) and Coronary Sinus (CS) were monitored. These locations were chosen as these are the sites whereby clot formation occurs that leads to Myocardial Infarction or results in stroke.
(§3) These drugs and doses were selected to represent a wide spectrum of anticoagulant classes. One anticoagulant was tested in one dog on each arm of this study.
(§4) Factor Xa inhibition; Prothrombin Time (PT): measures the integrity of the extrinsic system as well as factors common to both systems; and Activated Partial Thromboplastin Time (aPTT or PTT): measures the integrity of the intrinsic system and the common components and factor-Xa inhibition.
(§5) Measurements were performed in the blood collected from Left Atrium (LA) and in the Coronary sinus (CS)—the targets for stroke prevention and Myocardial Infarction (MI), respectively.

[5] = Inhaled anticoagulant in Myocardial Infarction patient (Example 4); assay type: in vivo, human
From the text: Inhaled anticoagulant (e.g. Argatroban) will be administered (e.g., self-administered) to a patient suffering a Myocardial Infarction (MI) early to ensure that the patient is in an anti-coagulated state by the time the patient arrives at the hospital or point of care. This will facilitate further interventions, for which an anti-coagulated state is important.

[6] = test system: intrinsic system; assay: Activated Partial Thromboplastin Time (aPTT or PTT) in dog blood after IV or IT anticoagulant; assay type: in vivo; details: for PTT CS: Coronary Sinus; for PTT LA: Left Atrium
Procedure: as §1, §2, §3, §4, §5

[7] = cited from earlier work
[8] = in vivo; cited from earlier work
[9] = IV Argatroban 3 mg, 0 min (baseline)
[10] = T Argatroban 5 mg, 0 min (baseline)

With `CC1CNc2c(cccc2S(=O)(=O)N[C@@H](CCCNC(=N)N)C(=O)N2CC[C@@H](C)C[C@@H]2C(=O)O)C1` (some centres unmarked) [Argatroban] the “return to a normal coagulation state after initiating the administration” value (“return to a normal coagulation state” for short) ([1]; inhaled) was 3 h, the “time to achieve an anti-coagulated state” value ([1]; inhaled 0.1 to 150 mg/kg) was 30 min and the “return to a normal coagulation state” value ([2]; inhaled) was 3 h. The “time to achieve an anti-coagulated state” value ([2]; inhaled 0.1 to 150 mg/kg) was 30 min, the “time in which ACT returns to base line” value [3] was 2 h and the “increase of ACT above baseline” value ([3]; IT) was at most 3.2 fold. The “time in which IT prolonged the ACT” value ([3]; IT) was 15 to 30 min, the “effect on ACT” value ([3]; IT (inhaled)) was “increased and prolonged ACT” and the “effect on ACT” value ([3]; IV) was “prolonged”. The “ACT LA” value [3, 9] was 101 s, the “ACT LA” value ([3]; IV Argatroban 3 mg, 1 min) was 535 s and the “ACT LA” value ([3]; IV Argatroban 3 mg, 3 min) was 1000 s. The “ACT LA” value ([3]; IV Argatroban 3 mg, 5 min) was 489 s, the “ACT LA” value ([3]; IV Argatroban 3 mg, 10 min) was 326 s and the “ACT LA” value ([3]; IV Argatroban 3 mg, 15 min) was 264 s. The “ACT LA” value ([3]; IV Argatroban 3 mg, 30 min) was 185 s, the “ACT LA” value ([3]; IV Argatroban 3 mg, 60 min) was 140 s and the “ACT LA” value ([3]; IV Argatroban 3 mg, 120 min) was 107 s. For the same compound, the “ACT LA” value [3, 10] was 84 s, the “ACT LA” value ([3]; T Argatroban 5 mg, 1 min) was 89 s and the “ACT LA” value ([3]; T Argatroban 5 mg, 3 min) was 73 s. For the same compound, the “ACT LA” value ([3]; T Argatroban 5 mg, 5 min) was 106 s, the “ACT LA” value ([3]; T Argatroban 5 mg, 10 min) was 135 s and the “ACT LA” value ([3]; T Argatroban 5 mg, 15 min) was 180 s. The “ACT LA” value ([3]; T Argatroban 5 mg, 30 min) was 259 s, the “ACT LA” value ([3]; T Argatroban 5 mg, 60 min) was 180 s and the “ACT LA” value ([3]; T Argatroban 5 mg, 120 min) was 129 s. The “effect on PT” value ([4]; IT (inhaled)) was “very marginal spikes”, the “effect on PT” value ([4]; IV) was “prolonged” and the “PT CS” value [4, 9] was 6.5 s. The “PT CS” value ([4]; IV Argatroban 3 mg, 3 min) was 33.7 s, the “PT CS” value ([4]; IV Argatroban 3 mg, 15 min) was 20.2 s and the “PT CS” value ([4]; IV Argatroban 3 mg, 60 min) was 8.6 s. For the same compound, the “PT LA” value [4, 9] was 9.1 s, the “PT LA” value ([4]; IV Argatroban 3 mg, 1 min) was 44.3 s and the “PT LA” value ([4]; IV Argatroban 3 mg, 3 min) was 36.3 s. The “PT LA” value ([4]; IV Argatroban 3 mg, 5 min) was 30.1 s, the “PT LA” value ([4]; IV Argatroban 3 mg, 10 min) was 22 s and the “PT LA” value ([4]; IV Argatroban 3 mg, 15 min) was 18 s. For the same compound, the “PT LA” value ([4]; IV Argatroban 3 mg, 30 min) was 11.5 s, the “PT LA” value ([4]; IV Argatroban 3 mg, 60 min) was 7.9 s and the “PT LA” value ([4]; IV Argatroban 3 mg, 120 min) was 6.7 s. The “PTCS” value [4, 10] was 6.5 s, the “PTCS” value ([4]; T Argatroban 5 mg, 3 min) was 6.8 s and the “PTCS” value ([4]; T Argatroban 5 mg, 15 min) was 8.9 s. For the same compound, the “PTCS” value ([4]; T Argatroban 5 mg, 60 min) was 8.6 s, the “PT LA” value [4, 10] was 6.3 s and the “PT LA” value ([4]; T Argatroban 5 mg, 1 min) was 6.7 s. The “PT LA” value ([4]; T Argatroban 5 mg, 3 min) was 7 s, the “PT LA” value ([4]; T Argatroban 5 mg, 5 min) was 7.2 s and the “PT LA” value ([4]; T Argatroban 5 mg, 10 min) was 8.6 s. For the same compound, the “PT LA” value ([4]; T Argatroban 5 mg, 15 min) was 10.4 s, the “PT LA” value ([4]; T Argatroban 5 mg, 30 min) was 12 s and the “PT LA” value ([4]; T Argatroban 5 mg, 60 min) was 8.1 s. For the same compound, the “PT LA” value ([4]; T Argatroban 5 mg, 120 min) was 7.3 s, the “time to achieve an anti-coagulated state” value ([5]; patient suffering Myocardial Infarction, inhaled 0.1 to 150 mg/kg) was 30 min and the “return to a normal coagulation state” value ([5]; patient suspected of Myocardial Infarction, inhaled) was 3 h. For the same compound, the “effect on aPTT” value ([6]; IT (inhaled)) was “very marginal spikes”, the “effect on aPTT” value ([6]; IV) was “prolonged” and the “PTT CS” value [6, 9] was 20.9 s. The “PTT CS” value ([6]; IV Argatroban 3 mg, 3 min) was 20 s, the “PTT CS” value ([6]; IV Argatroban 3 mg, 15 min) was 33.8 s and the “PTT CS” value ([6]; IV Argatroban 3 mg, 60 min) was 24.9 s. The “PTT LA” value [6, 9] was 48.2 s, the “PTT LA” value ([6]; IV Argatroban 3 mg, 1 min) was 41.5 s and the “PTT LA” value ([6]; IV Argatroban 3 mg, 3 min) was 29.5 s. The “PTT LA” value ([6]; IV Argatroban 3 mg, 5 min) was 23.4 s, the “PTT LA” value ([6]; IV Argatroban 3 mg, 10 min) was 20.9 s and the “PTT LA” value ([6]; IV Argatroban 3 mg, 15 min) was 25.1 s. The “PTT LA” value ([6]; IV Argatroban 3 mg, 30 min) was 12.2 s, the “PTT LA” value ([6]; IV Argatroban 3 mg, 60 min) was 9.8 s and the “PTT LA” value ([6]; IV Argatroban 3 mg, 120 min) was 49.3 s. For the same compound, the “PTT CS” value [6, 10] was 16.1 s, the “PTT CS” value ([6]; T Argatroban 5 mg, 3 min) was 18.4 s and the “PTT CS” value ([6]; T Argatroban 5 mg, 15 min) was 9.5 s. For the same compound, the “PTT CS” value ([6]; T Argatroban 5 mg, 60 min) was 40.3 s, the “PTT LA” value [6, 10] was 13.3 s and the “PTT LA” value ([6]; T Argatroban 5 mg, 1 min) was 12.5 s. For the same compound, the “PTT LA” value ([6]; T Argatroban 5 mg, 3 min) was 17.7 s, the “PTT LA” value ([6]; T Argatroban 5 mg, 5 min) was 17.2 s and the “PTT LA” value ([6]; T Argatroban 5 mg, 10 min) was 20.1 s. For the same compound, the “PTT LA” value ([6]; T Argatroban 5 mg, 15 min) was 17.8 s, the “PTT LA” value ([6]; T Argatroban 5 mg, 30 min) was 13.2 s and the “PTT LA” value ([6]; T Argatroban 5 mg, 60 min) was 11.1 s. The “PTT LA” value ([6]; T Argatroban 5 mg, 120 min) was 10.4 s.

For `CCCCS(=O)(=O)N[C@@H](Cc1ccc(OCCCCC2CCNCC2)cc1)C(=O)O` [Tirofiban], the “Log P” value [7] is given as 1.4 and the aqueous solubility [7] is given as “low”.

In the case of `CO[C@H]1O[C@H](COS(=O)(=O)O)[C@@H](O[C@@H]2O[C@@H](C(=O)O)[C@@H](O[C@H]3O[C@H](COS(=O)(=O)O)[C@@H](O[C@@H]4O[C@H](C(=O)O)[C@@H](O[C@H]5O[C@H](COS(=O)(=O)O)[C@@H](OC)[C@H](OC)[C@H]5OC)[C@H](OC)[C@H]4OC)[C@H](OS(=O)(=O)O)[C@H]3OS(=O)(=O)O)[C@H](OC)[C@H]2OC)[C@H](OS(=O)(=O)O)[C@H]1OS(=O)(=O)O` [idraparinux], the elimination half-life [8] is listed as “approximately 80 hours” and the “elimination half-life relative to fondaparinux” value [8] is listed as “five to six times longer”.
